Data set [1] can be described thus: Metabolic stability in human liver microsomes assessed compound remaining measured after 10 mins in presence of NADPH. Type of data set: ADME, Microsome. The note with it: read-out: Stability.
The nature of data set [2]: Antagonist activity at mAChR (unknown origin) expressed in CCRF-CEM cells assessed as inhibition of calcium release by calcium flux assay. The conditions noted are these: Homo sapiens. The class given is cell-based.
The nature of data set [3]: Permeability of compound at pH 5.5 incubated for 4 hrs by PAMPA assay. The class given is ADME. The note with it: read-out: permeability.
Data set [4] can be described thus: Metabolic stability in mouse liver microsomes assessed compound remaining measured after 10 mins in presence of NADPH. Type of data set: ADME, Microsome. The conditions noted are these: read-out: Stability.
Another data set concerns the target Cytochrome P450 2D6 (Homo sapiens, UniProt P10635). The data set is described as follows: Inhibition of recombinant human CYP2D6 using AMMC as substrate preincubated for 30 mins followed by substrate addition measured after 45 mins by fluorescence based assay. The class given is ADME.
The nature of data set [5]: Permeability of compound at pH 7.4 incubated for 4 hrs by PAMPA assay. The note with it: read-out: permeability. Type of data set: ADME.
The nature of data set [6]: Metabolic stability in rat liver microsomes assessed compound remaining measured after 10 mins in presence of NADPH. The conditions noted are these: read-out: Stability. Type of data set: ADME, Microsome.
Data set [7] in a line: Antagonist activity at human CXCR4 receptor expressed in CCRF-CEM cells assessed as inhibition of CXCL12-induced calcium release by calcium flux assay. The class given is cell-based.

Each structure is given as a SMILES string.

Chain of Cytochrome P450 2D6 (P10635 whole entry): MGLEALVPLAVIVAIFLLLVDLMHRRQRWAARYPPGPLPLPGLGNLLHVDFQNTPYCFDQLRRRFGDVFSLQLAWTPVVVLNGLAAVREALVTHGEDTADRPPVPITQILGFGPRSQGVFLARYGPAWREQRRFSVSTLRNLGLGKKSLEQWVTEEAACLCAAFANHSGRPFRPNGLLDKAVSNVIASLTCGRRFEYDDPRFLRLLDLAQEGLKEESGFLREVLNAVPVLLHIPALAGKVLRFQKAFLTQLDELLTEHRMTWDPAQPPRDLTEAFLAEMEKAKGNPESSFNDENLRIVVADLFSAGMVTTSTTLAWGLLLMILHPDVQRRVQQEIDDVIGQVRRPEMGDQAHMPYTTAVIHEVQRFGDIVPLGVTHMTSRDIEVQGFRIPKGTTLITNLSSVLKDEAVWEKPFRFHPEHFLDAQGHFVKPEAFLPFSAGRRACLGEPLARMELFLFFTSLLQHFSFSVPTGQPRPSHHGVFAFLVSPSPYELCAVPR

With `CCN(CC)CCCCN(C[C@H]1Cc2ncccc2CN1)[C@H]1CCCc2cccnc21`, the figures for the remaining at 10 min in data set [1], in data set [4] and in data set [6] were 80%, 1% and 6%, respectively. The results for the IC50 (in data set [2]; on Cytochrome P450 2D6; in data set [7]) were greater than 17 µM, 10 µM and 0.39 µM, respectively. For the same molecule, the Papp at 4 h is 0.3 ×10⁻⁶ cm/s in data set [3] and 24 ×10⁻⁶ cm/s in data set [5].
As to `FC1(F)CCC(NCCCCN(C[C@H]2Cc3ncccc3CN2)[C@H]2CCCc3cccnc32)CC1`, the remaining at 10 min was 88% in data set [1], 47% in data set [4] and 10% in data set [6]. In addition, the IC50 in data set [2] came out at 31 µM; at Cytochrome P450 2D6 it was 15 µM; in data set [7], 0.029 µM. The Papp at 4 h in data set [5] is 5.2 ×10⁻⁶ cm/s.
For the molecule `CN(C[C@H]1Cc2ncccc2CN1)[C@H]1CCCc2cccnc21`, the remaining at 10 min in data set [1] is 95%; in data set [4], 53%; in data set [6] it was 7%. In addition, the results for the IC50 (in data set [2]; on Cytochrome P450 2D6; in data set [7]) were less than 17 µM, 2.8 µM and 0.48 µM, respectively. For the same molecule, the results for the Papp at 4 h in data set [3] and in data set [5] were 46 ×10⁻⁶ cm/s and 130 ×10⁻⁶ cm/s, respectively.
In the case of `CN(C[C@@H]1Cc2ncccc2CN1)[C@H]1CCCc2cccnc21`, the results for the remaining at 10 min in data set [1], in data set [4] and in data set [6] were 100%, 0% and 1%, respectively. In addition, the results for the IC50 (in data set [2]; at Cytochrome P450 2D6; in data set [7]) were less than 17 µM, 2.7 µM and greater than 33 µM, respectively. Also, the results for the Papp at 4 h in data set [3] and in data set [5] were 23 ×10⁻⁶ cm/s and 100 ×10⁻⁶ cm/s, respectively.
On to `CN(C)CCCCN(C[C@H]1Cc2ncccc2CN1)[C@H]1CCCc2cccnc21`, for which the remaining at 10 min in data set [1] worked out at 100%; in data set [4], 55%; in data set [6] it was 27%. Moreover, the IC50 in data set [2] is greater than 17 µM; on Cytochrome P450 2D6, 10 µM; in data set [7], 0.27 µM. In addition, the Papp at 4 h was 0.2 ×10⁻⁶ cm/s in data set [3] and 24 ×10⁻⁶ cm/s in data set [5].
For the molecule `NCCCCN(C[C@@H]1Cc2cccnc2CN1)[C@H]1CCCc2cccnc21`, the figures for the remaining at 10 min in data set [1], in data set [4] and in data set [6] were 92%, 25% and 37%, respectively. For the same molecule, the results for the IC50 (at Cytochrome P450 2D6; in data set [7]) were 4.4 µM and 0.22 µM, respectively. For the same molecule, in data set [5], the Papp at 4 h came out at 7.7 ×10⁻⁶ cm/s.
Regarding `NC/C=C\CN(C[C@H]1Cc2ncccc2CN1)[C@H]1CCCc2cccnc21`, the results for the remaining at 10 min in data set [1], in data set [4] and in data set [6] were 85%, 37% and 11%, respectively. For the same molecule, the IC50 in data set [2] was 0.18 µM; on Cytochrome P450 2D6, 13 µM; in data set [7] it was 0.026 µM. The Papp at 4 h in data set [3] amounted to 2.8 ×10⁻⁶ cm/s; in data set [5], 6.8 ×10⁻⁶ cm/s.
Take `NC(=O)NC/C=C/CN(C[C@H]1Cc2ncccc2CN1)[C@H]1CCCc2cccnc21`: the values for the remaining at 10 min in data set [1], in data set [4] and in data set [6] were 93%, 19% and 1%, respectively. The IC50 was greater than 17 µM in data set [2], 18 µM at Cytochrome P450 2D6 and 0.43 µM in data set [7]. Moreover, the Papp at 4 h in data set [3] amounted to 0.6 ×10⁻⁶ cm/s; in data set [5], 0.2 ×10⁻⁶ cm/s.
As for `NCCCCN(C[C@@H]1Cc2nccnc2CN1)[C@H]1CCCc2cccnc21`, the remaining at 10 min in data set [1] was 87%; in data set [4], 73%; in data set [6], 67%. For the same molecule, the Papp at 4 h in data set [3] and in data set [5] was 0.2 ×10⁻⁶ cm/s in each case. Also, the IC50 was greater than 20 µM at Cytochrome P450 2D6 and 0.13 µM in data set [7].
In the case of `NCCCCN(C[C@@H]1Cc2ncccc2CN1)[C@H]1CCCc2cccnc21`, the remaining at 10 min in data set [1] worked out at 98%; in data set [4], 75%; in data set [6], 55%. Moreover, the values for the Papp at 4 h in data set [3] and in data set [5] were 0.2 ×10⁻⁶ cm/s and 0.7 ×10⁻⁶ cm/s, respectively. Besides, the IC50 on Cytochrome P450 2D6 turned out to be 9.7 µM; in data set [7], 0.55 µM.

Source of the values: ChEMBL document CHEMBL5046278, “Synthesis and Evaluation of Novel Tetrahydronaphthyridine CXCR4 Antagonists with Improved Drug-like Profiles” (J Med Chem, 2022).
